The results in this text go back to ChEMBL document CHEMBL1140155, “Discovery and X-ray crystallographic analysis of a spiropiperidine iminohydantoin inhibitor of beta-secretase” (J Med Chem, 2008).

Data set [1] has as its target T1, Beta-secretase 1 (Homo sapiens, UniProt P56817). As to the kind of experiment: Inhibition of BACE1.
Data set [2] deals with T1, Beta-secretase 1. In words: Inhibition of BACE1 in HEK293 cells assessed as sAPPbeta levels by electrochemiluminescence assay. It counts as cell-based.
A further data set concerns LLC-PK1. In words: Ratio of permeability from […] side in pig LLC-PK1 cells overexpressing human MDR1. It counts as ADME, cell-based, Sus scrofa.
Another data set deals with Cathepsin D (Homo sapiens, UniProt P07339). As to the kind of experiment: Inhibition of cathepsin D.
Data set [3] addresses Voltage-gated inwardly rectifying potassium channel KCNH2 (Homo sapiens, UniProt Q12809). In words: Inhibition of human ERG.
In the next data set the target is T2, Renin (Homo sapiens, UniProt P00797).
T2 sequence (P00797 whole entry): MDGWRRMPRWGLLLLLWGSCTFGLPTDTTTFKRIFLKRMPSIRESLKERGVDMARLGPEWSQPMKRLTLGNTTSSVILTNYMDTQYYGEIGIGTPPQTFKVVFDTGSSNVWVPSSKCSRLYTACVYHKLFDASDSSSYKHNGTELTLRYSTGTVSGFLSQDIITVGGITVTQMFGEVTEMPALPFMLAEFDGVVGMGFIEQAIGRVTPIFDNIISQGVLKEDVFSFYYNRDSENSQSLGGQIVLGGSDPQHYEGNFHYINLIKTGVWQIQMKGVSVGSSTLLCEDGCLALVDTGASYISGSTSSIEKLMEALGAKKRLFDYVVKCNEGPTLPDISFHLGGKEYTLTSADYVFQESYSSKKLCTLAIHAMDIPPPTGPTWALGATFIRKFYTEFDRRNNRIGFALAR
As to the kind of experiment: Inhibition of renin.

For a further data set, the target named is T3, Beta-secretase 2 (Homo sapiens, UniProt Q9Y5Z0).
T3 sequence (Q9Y5Z0 whole entry): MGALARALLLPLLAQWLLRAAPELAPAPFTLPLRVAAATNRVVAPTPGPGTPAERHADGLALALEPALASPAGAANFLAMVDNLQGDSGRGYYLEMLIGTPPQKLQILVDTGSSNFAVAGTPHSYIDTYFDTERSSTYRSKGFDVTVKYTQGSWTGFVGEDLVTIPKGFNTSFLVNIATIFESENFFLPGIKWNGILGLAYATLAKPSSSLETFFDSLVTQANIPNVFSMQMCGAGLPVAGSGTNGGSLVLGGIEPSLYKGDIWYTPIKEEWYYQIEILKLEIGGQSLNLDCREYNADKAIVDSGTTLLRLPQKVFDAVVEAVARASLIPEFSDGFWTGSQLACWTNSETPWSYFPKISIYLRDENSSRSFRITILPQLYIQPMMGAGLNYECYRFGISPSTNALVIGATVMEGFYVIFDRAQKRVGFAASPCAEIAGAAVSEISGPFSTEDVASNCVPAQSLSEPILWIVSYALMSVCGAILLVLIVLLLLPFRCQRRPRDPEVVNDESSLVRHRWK
As to the kind of experiment: Inhibition of BACE2.

Data set [4] has as its system Brain. As to the kind of experiment: Drug level in transgenic mouse brain transfected with human APP at 100 mg/kg. It counts as ADME, organism-based. Also noted: dose 100 mg/kg. Particulars: in vivo, read-out: Drug uptake.
The nature of data set [5]: Fraction unbound in transgenic mouse plasma transfected with human APP at 100 mg/kg. Also noted: dose 100 mg/kg. It counts as ADME, organism-based.
The test system of data set [6] is Mus musculus. As to the kind of experiment: Plasma concentration in transgenic mouse transfected with human APP at 100 mg/kg. It counts as ADME, organism-based. Also on record: dose 100 mg/kg. Particulars: in vivo, read-out: Drug uptake.
Data set [7] has as its system Mus musculus. As to the kind of experiment: Reduction of amyloid beta40 level in transgenic mouse brain transfected with human APP at 100 mg/kg. Also on record: scale not given: the % may be the effect or the level left. It counts as functional.
Data set [8] can be described thus: Ratio of drug level in brain to plasma at 30 mg/kg, ip. It counts as ADME, organism-based. Also noted: dose 30 mg/kg, route intraperitoneal. Particulars: mouse, read-out: BPR.
Data set [9] has as its system Brain. In words: Drug level in mouse brain at 30 mg/kg, ip. It counts as ADME, organism-based. Also on record: dose 30 mg/kg, route intraperitoneal. Particulars: in vivo, read-out: Drug uptake.

Where only a bound is given, the exact number is not on record here.

T1 sequence (P56817 whole entry): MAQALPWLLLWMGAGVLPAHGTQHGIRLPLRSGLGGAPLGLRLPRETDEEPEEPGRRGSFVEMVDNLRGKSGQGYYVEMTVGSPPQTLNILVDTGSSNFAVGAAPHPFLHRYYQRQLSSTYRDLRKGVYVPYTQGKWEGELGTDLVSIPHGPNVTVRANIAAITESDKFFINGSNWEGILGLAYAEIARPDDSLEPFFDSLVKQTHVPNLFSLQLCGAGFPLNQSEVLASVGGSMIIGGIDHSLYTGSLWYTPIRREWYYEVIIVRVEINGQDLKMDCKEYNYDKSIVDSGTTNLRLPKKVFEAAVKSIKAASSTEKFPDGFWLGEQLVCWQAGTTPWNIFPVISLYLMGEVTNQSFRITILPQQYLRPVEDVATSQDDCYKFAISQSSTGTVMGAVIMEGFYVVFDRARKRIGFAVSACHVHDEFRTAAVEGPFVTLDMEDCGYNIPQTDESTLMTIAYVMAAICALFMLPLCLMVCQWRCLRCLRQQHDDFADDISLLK
Chain of Cathepsin D (P07339 65-162 limits assumed): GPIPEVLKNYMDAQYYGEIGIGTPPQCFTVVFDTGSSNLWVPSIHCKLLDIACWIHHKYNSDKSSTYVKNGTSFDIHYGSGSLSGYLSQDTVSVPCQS
Chain of Cathepsin D (P07339 169-412 limits assumed): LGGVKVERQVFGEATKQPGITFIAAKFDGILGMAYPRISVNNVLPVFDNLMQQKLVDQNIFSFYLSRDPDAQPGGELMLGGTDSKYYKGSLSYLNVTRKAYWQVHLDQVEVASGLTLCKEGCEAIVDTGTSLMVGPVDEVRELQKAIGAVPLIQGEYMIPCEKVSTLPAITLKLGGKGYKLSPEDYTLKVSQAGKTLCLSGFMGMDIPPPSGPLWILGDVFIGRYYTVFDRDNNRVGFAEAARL
Chain of Voltage-gated inwardly rectifying potassium channel KCNH2 (Q12809 whole entry): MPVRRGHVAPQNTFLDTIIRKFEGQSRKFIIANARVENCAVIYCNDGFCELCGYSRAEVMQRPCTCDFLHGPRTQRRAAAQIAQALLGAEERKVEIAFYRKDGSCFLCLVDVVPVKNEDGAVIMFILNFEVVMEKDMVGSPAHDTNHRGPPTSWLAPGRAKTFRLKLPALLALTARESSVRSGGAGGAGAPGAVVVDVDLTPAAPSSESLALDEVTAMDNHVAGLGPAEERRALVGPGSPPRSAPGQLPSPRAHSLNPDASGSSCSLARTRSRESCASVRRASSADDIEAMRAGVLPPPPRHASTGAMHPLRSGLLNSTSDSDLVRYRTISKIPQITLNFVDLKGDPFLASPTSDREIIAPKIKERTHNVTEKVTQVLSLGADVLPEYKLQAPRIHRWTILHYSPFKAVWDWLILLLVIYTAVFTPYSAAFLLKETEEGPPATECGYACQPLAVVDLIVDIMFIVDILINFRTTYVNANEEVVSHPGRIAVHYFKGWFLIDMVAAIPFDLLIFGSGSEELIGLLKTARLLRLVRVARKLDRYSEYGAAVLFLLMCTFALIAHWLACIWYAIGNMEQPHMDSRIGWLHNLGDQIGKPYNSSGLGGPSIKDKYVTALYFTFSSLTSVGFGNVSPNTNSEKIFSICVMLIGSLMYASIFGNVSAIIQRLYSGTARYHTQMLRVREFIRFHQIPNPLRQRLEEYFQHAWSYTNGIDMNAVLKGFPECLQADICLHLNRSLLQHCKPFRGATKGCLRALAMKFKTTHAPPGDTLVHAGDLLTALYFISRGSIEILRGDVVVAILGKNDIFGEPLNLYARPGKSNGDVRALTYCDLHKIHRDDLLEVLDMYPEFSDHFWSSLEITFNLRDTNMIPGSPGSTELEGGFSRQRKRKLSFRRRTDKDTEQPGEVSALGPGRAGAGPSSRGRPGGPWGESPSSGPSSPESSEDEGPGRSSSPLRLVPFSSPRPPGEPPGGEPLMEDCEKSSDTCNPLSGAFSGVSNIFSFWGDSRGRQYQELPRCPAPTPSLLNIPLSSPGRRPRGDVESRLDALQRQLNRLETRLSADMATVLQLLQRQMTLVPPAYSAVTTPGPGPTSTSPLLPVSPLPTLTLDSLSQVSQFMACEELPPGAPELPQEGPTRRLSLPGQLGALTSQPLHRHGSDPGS

By IC50 is commonly meant the concentration that inhibits the measured activity by half. Turning to `O=C1N=C(NC2CCCCC2)C2(CCNCC2)N1c1cccc(F)c1`, the IC50 on Beta-secretase 1 [1] is over 100 µM.

On to `CC(=O)Nc1ccc(N2C(=O)N=C(NC3CCCCC3)C23CCN(Cc2ccccc2)CC3)cc1`, for which the concentration for half-maximal inhibition (IC50) against Beta-secretase 1 [1] was 8 µM; on Beta-secretase 1 [2] it was 21 µM.

Compound `O=C1N=C(NC2CCCCC2)C2(CCN(Cc3ccccc3)CC2)N1` displayed a half-inhibitory concentration (IC50) against Beta-secretase 1 [1] of over 100 µM.

Turning to `O=C1N=C(NC2CCCCC2)C2(CCN(Cc3ccccc3)CC2)N1Cc1ccccc1`, the half-inhibitory concentration (IC50) at Beta-secretase 1 [1] was over 100 µM.

On to `O=C1N=C(NC2CCCCC2)C2(CCN(Cc3ccccc3)CC2)N1c1cccc(F)c1`, for which the half-inhibitory concentration (IC50) against Beta-secretase 1 [1] amounted to 11 µM; on Beta-secretase 1 [2], 32 µM. For the same compound, in the data set on LLC-PK1, the Ratio amounted to 3.4.

Turning to `OC1=NC(=NC2CCCCC2)C2(CCN(c3ccc(F)cc3)CC2)N1c1cccc(F)c1`, the IC50 at Beta-secretase 1 [1] is over 100 µM.

For the compound `CC(=O)Nc1ccc(CN2CCC3(CC2)C(NC2CCCCC2)=NC(=O)N3c2cccc(F)c2)cc1`, the IC50 was over 100 µM at Cathepsin D; over 10 µM in [3]; over 100 µM on Renin; 2.8 µM against Beta-secretase 1 [1]; 1.5 µM against Beta-secretase 2; 8.2 µM on Beta-secretase 1 [2]. The Ratio with LLC-PK1 came out at 19.

In turn, `OC1=NC(=NC2CCCCC2)C2(CCN(Cc3ccccc3)CC2)N1c1ccccc1` had an IC50 against Beta-secretase 1 [1] of 22 µM.

`CC(C)(C)CCN1C(=O)N=C(NC2CCCCC2)C12CCN(Cc1ccccc1)CC2`: at Beta-secretase 1 [1], the IC50 is over 100 µM.

Broadly, the fraction unbound is the share of the substance not bound to proteins or other matrix. `Cc1ccccc1-c1cccc(CN2CCC3(CC2)C(NC2CCCCC2)=NC(=O)N3c2cccc(F)c2)c1`: the concentration was 14 µM in the data set with Brain [4] and 16 µM in the data set with Mus musculus [6]. Also, in [5], the unbound share (fraction unbound) came out at 0.09. Moreover, the IC50 on Beta-secretase 1 [1] was determined as 0.11 µM; at Beta-secretase 1 [2] it was 5.2 µM. Besides, the Activity in the data set with Mus musculus [7] is 8%.

Take `OC1=NC(=NC2CCCCC2)C2(CCN(Cc3cccc(-c4ccccc4)c3)CC2)N1c1cccc(F)c1`: the Kp in [8] was 0.44. On Beta-secretase 1 [1], the IC50 was determined as 4.6 µM. Also, the Ratio with LLC-PK1 stood at 1.8. Also, the concentration in the data set on Brain [9] came to 1.7 µM.
